Reference: patent US9290459B1, “Substituted bicyclic dihydropyrimidinones and their use as inhibitors of neutrophil elastase activity” (Boehringer Ingelheim International GmbH, priority 2013, dated 2016)
Converted amounts (≈) assume the structure as drawn.

Key:
[1] = Metabolic stability with human liver microsomes; type: in vitro ADME; conditions: for t1/2 INVITRO: pooled human liver microsomes, 1 mg/ml protein, 1 μM test compound, 37° C., NADPH; for half-life at 1 μM: human, microsomes, pH 7.6
Aqueous solubility = type: physicochemical; conditions: McIlvaine buffer pH 6.8, 2.5% DMSO, 24 h shaking; for solubility at 24 h: McIlvaine buffer pH 6.8 with 2.5% DMSO, pH 6.8, aqueous buffer, kinetic from dmso stock
Procedure: Assay for Determination of Aqueous Solubility […] After 24 h of shaking, the solutions or suspensions are filtered and analyzed by LC-UV. The amount dissolved in buffer is compared to the amount dissolved in the acetonitrile/water (1/1) solution.

[2] = Drug transport across human Caco-2 cells; type: in vitro ADME; conditions: human, Caco-2, pH 7.2, Caco-2 monolayers, pH 7.2, 37° C.; for Papp A→B at 10 µM: apical-to-basal, read-out: PEAB; for Papp B→A at 10 µM: basal-to-apical, read-out: PEBA
Text: Assay for Determination of Drug Transport Across Human Caco-2 Cells The assay provides information on the potential of a compound to pass the cell membrane, on the extent of oral absorption as well as on whether the compound is actively transported by uptake and/or efflux transporters. […] The compounds are assigned to permeability/absorption classes by comparison of the AB permeabilities with the AB permeabilities of reference compounds with known in vitro permeability and oral absorption in the human. Identical or similar permeabilities in both transport directions indicate passive permeation, vectorial permeability points to additional active transport mechanisms. […] Active transport is concentration-dependently saturable. Caco-2 cells (1-2*10^5 cells/cm^2 area) are seeded on filter inserts (Costar transwell polycarbonate or PET filters, 0.4 nm pore size) and cultured (DMEM) for 10 to 25 days. […] The transport solution (TL) is applied ici to the apical or basolateral donor side for measuring A-B or B-A permeability (3 filter replicates), respectively. The receiver side contains HTP-4 buffer supplemented with 2% BSA. […] Sampled receiver volumes are replaced with fresh receiver solution.

[3] = biological target: Human neutrophil elastase (Homo sapiens (Human), UniProt P08246); test: Human Neutrophil Elastase Assay; type: biochemical; conditions: human neutrophil elastase, substrate MeOSuc-Ala-Ala-Pro-Val-AMC 250 μM, pH 7.5; read-out: IC50
Sequence of Human neutrophil elastase (P08246 30-247): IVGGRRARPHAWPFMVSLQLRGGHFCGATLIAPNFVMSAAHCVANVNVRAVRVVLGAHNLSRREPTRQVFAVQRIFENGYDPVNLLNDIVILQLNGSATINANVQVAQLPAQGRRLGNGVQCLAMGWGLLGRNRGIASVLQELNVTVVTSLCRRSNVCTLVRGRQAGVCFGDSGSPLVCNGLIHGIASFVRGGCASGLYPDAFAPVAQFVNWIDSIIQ

For `CS(=O)(=O)c1cc(C#N)ccc1C1C2=C(CCC2=O)N(c2cccc(C(F)(F)F)c2)C(=O)N1CC(=O)N1CC2CC2C1` (centres unmarked) [Example 22.4], the “t1/2 INVITRO” value [1] was over 2.17 h.

Compound `CN1CC(NC(=O)N2C(=O)N(c3cccc(C(F)(F)F)c3)C3=C(C(=O)CC3)C2c2ccc(C#N)cc2)CC1=O` (centres unmarked) [Example 7.9] has an Aqueous solubility (Aqueous solubility) of 0.106 mg/mL.

With `CS(=O)(=O)c1cc(C#N)ccc1C1C2=C(CCC2=O)N(c2cccc(C(F)(F)F)c2)C(=O)N1CCCO` (centres unmarked) [Example 24.1] the Aqueous solubility (Aqueous solubility) was 0.064 mg/mL and the “t1/2 INVITRO” value [1] was 1.67 h.

Work on `CN1C(=O)N(c2cccc(C(F)(F)F)c2)C2=C(C(=O)CC2)[C@H]1c1ccc(C#N)cc1` [Example 2A, (R)-4-(3-Methyl-2,5-dioxo-1-(3-(trifluoromethyl)phenyl)-2,3,4,5,6,7-hexahydro-1H-cyclopenta[d]pyrimidin-4-yl)benzonitrile] yielded a solubility at 24 h (Aqueous solubility) of 0.07 mg/mL (≈ 170 µM), a Papp A→B at 10 µM [2] of 870 nm/s and a Papp B→A at 10 µM [2] of 690 nm/s.

`CN(C)CCNC(=O)N1C(=O)N(c2cccc(C(F)(F)F)c2)C2=C(C(=O)CC2)C1c1ccc(C#N)cc1` (centres unmarked) [Example 7.5] showed an Aqueous solubility (Aqueous solubility) of 0.104 mg/mL.

Compound `CNC(=O)N1C(=O)N(c2cccc(C(F)(F)F)c2)C2=C(C(=O)CC2)C1c1ccc(C#N)cc1OC` (centres unmarked) [Example 50.3] has a half-life at 1 μM [1] of over 2.17 h, a Papp A→B at 10 µM [2] of 724 nm/s and a Papp B→A at 10 µM [2] of 681 nm/s.

In the case of `N#Cc1ccc([C@@H]2C3=C(CCC3=O)N(c3cccc(C(F)(F)F)c3)C(=O)N2C(=O)NC2CCS(=O)(=O)CC2)cc1` [Example 46, (R)-4-(4-Cyanophenyl)-2,5-dioxo-N-(1,1-dioxo-hexahydro-1λ^6-thiopyran-4-yl)-1-(3-(trifluoromethyl)phenyl)-4,5,6,7-tetrahydro-1H-cyclopenta[d]pyrimidine-3(2H)-carboxamide], the Aqueous solubility (Aqueous solubility) is reported as 0.01 mg/mL and the “t1/2 INVITRO” value [1] is reported as over 2.17 h.

For `CCS(=O)(=O)c1cc(C#N)ccc1C1C2=C(CCC2=O)N(c2cccc(C(F)(F)F)c2)C(=O)N1S(C)(=O)=O` (centres unmarked) [Example 37.4], the IC50 [3] was 1.7 nM, the solubility at 24 h (Aqueous solubility) was 0.021 mg/mL (≈ 37 µM) and the half-life at 1 μM [1] was over 2.17 h.

With `C[S+]([O-])CCNC(=O)N1C(=O)N(c2cccc(C(F)(F)F)c2)C2=C(C(=O)CC2)C1c1ccc(C#N)cc1` (centres unmarked) [Example 7.6] the Aqueous solubility (Aqueous solubility) was 0.094 mg/mL and the “t1/2 INVITRO” value [1] was over 2.17 h.

With `CS(=O)(=O)c1cc(C#N)ccc1C1NC(=O)N(c2ccnc(C(F)(F)F)c2)C2=C1C(=O)CC2` (centres unmarked) [Example 15.6, 4-(2,5-dioxo-1-(2-(trifluoromethyl)pyridin-4-yl)-2,3,4,5,6,7-hexahydro-1H-cyclopenta[d]-pyrimidin-4-yl)-3-(methylsulfonyl)benzonitrile] the IC50 [3] was 43.6 nM, the solubility at 24 h (Aqueous solubility) was 0.076 mg/mL (≈ 160 µM) and the half-life at 1 μM [1] was over 2.17 h.

With `COC(=O)N1C(=O)N(c2cccc(C(F)(F)F)c2)C2=C(C(=O)CC2)C1c1ccc(C#N)cc1` (centres unmarked) [Example 8, Methyl 4-(4-Cyanophenyl)-2,5-dioxo-1-(3-(trifluoromethyl)phenyl)-4,5,6,7-tetrahydro-1H-cyclopenta[d]pyrimidine-3(2H)-carboxylate] the IC50 [3] was 4 nM.

In the case of `Cc1cc(C#N)ccc1C1C2=C(CCC2=O)N(c2cccc(C(F)(F)F)c2)C(=O)N1S(C)(=O)=O` (centres unmarked) [Example 37.1], the IC50 [3] is reported as 3.7 nM.

Work on `CCS(=O)(=O)c1cc(C#N)ccc1C1C2=C(CCC2=O)N(c2cccc(C(F)(F)F)c2)C(=O)N1C(=O)NC` (centres unmarked) [Example 50.7] yielded an IC50 [3] of under 1 nM.

In the case of `N#Cc1ccc([C@H]2C3=C(CCC3=O)N(c3cccc(C(F)F)c3)C(=O)N2C(=O)NCCCO)cc1` [Example 52B, (S)-4-(4-Cyanophenyl)-1-(3-(difluoromethyl)phenyl)-N-(3-hydroxypropyl)-2,5-dioxo-4,5,6,7-tetrahydro-1H-cyclopenta[d]pyrimidine-3(2H)-carboxamide], the IC50 [3] is reported as 619 nM.

Compound `CN1C(=O)N(c2cccc(C(F)(F)F)c2)C2=C(C(=O)CC2)C1c1ccc(C#N)cc1Br` (centres unmarked) [Example 27.2] has an IC50 [3] of 7.1 nM.
